In this assay the target is human TRPV4 (Homo sapiens (Human), UniProt Q9HBA0). In words: Test Example 3: measurement of TRPV4 inhibitory activity (Fluo-3, FDSS 3000, 4α-PDD). It counts as cell-based. The following applies: hTRPV4/CHO cells, calculated from IC50 and 4α-PDD EC50. Here is the method: For each compound, TRPV4 inhibitory activity was measured using cells.
(1) The TRPV4 inhibitory activity was measured using CHO-K1 cells stably expressing human TRPV4 (hTRPV4/CHO cells).
(2) Frozen cells were thawed and subcultured with the medium (MEM-α, 10% FBS, […], 50 unit/mL penicillin, 50 μg/mL streptomycin, 1 mg/mL G418).
(3) The 96-well plates which hTRPV4/CHO cells were seeded at densities of 2×10^4 cells/well in the culture medium and cultured in a CO2 incubator in the presence of 5% CO2 at 37° C. for 24 h was used as assay plates.
(4) The assay plate was washed with assay buffer (Hanks, […], […], pH7.4).
(5) Fluo-3, fluorescent dye for Ca influx assay was added to each well, then the assay plate was incubated in a CO2 incubator in the presence of 5% CO2 at 37° C. for one hour (final conc.; 5 μmmol/L Fluo-3).
(6) The assay plate was washed with the assay buffer, and the buffer was remained at 30 μL/well. Then the assay plate was incubated for 10 min at 37° C.
(7) Diluted compound solution was dispensed to each well in the compound plate, and mixed with built-in Pipette and Mixer of the fluorescence analysis system FDSS 3000 (Hamamatsu Photonics).
(8) 50 μL of 4α-PDD solution (concluding 0.1% Pluronic F-127) was applied to each well of assay plate and mixed.
(9) The fluorescent intensity was measured by FDSS 3000 for 8 min from the point of time addition the compound solution, at Ex 480 nm, Em 540 nm wavelength.
TRPV4 inhibitory activity (Ki value) of a compound was evaluated according to the following procedure.
(10) In the presence of the compound, the difference between maximal and minimal of fluorescent intensity value for 8 min from just before addition of 4α-PDD solution was calculated, and it was referred as Max-Min value. Max-Min value of the Ruthenium Red at 10 μM was defined as 100% inhibitory activity, Max-Min value in the absence of the compound was defined as 0% inhibitory activity. The TRPV4 inhibitory activity of the compound was calculated by the following formula. (1−(Max-Min value of the compound−100% inhibitory activity)/(0% inhibitory activity−100% inhibitory activity))×100 (11) By the following formula, inhibitory activity was calculated at 10 points with three fold serial dilution, in the final concentration of the compound from 10 μmmol/L to 0.5 nmol/L. The IC50 value was calculated by dose-response curve. 100−[(fluorescent intensity in the presence of the compound−fluorescent intensity of back ground)/(total fluorescent intensity−fluorescent intensity of back ground)]×100 (12) In the presence of the compound, activity of 4α-PDD was measured at 9 points with three fold serial dilution from 20 μmol/L. Activity of 4α-PDD was calculated by the following formula. (Max-Min value of the each 4α-PDD concentration−0% activity)/(100% activity−0% activity))×100 (13) Effective activity was calculated in 4α-PDD the above. The EC50 value was calculated by dose-response curve. (14) The Ki value of a compound was calculated by the following formula. Ki (nmol/L)=IC50 value (nmol/L)/([A]/EC50 value (nmol/L)) [A]; Concentration of agonist (nmol/L)

Sequence of human TRPV4 (Q9HBA0 whole entry): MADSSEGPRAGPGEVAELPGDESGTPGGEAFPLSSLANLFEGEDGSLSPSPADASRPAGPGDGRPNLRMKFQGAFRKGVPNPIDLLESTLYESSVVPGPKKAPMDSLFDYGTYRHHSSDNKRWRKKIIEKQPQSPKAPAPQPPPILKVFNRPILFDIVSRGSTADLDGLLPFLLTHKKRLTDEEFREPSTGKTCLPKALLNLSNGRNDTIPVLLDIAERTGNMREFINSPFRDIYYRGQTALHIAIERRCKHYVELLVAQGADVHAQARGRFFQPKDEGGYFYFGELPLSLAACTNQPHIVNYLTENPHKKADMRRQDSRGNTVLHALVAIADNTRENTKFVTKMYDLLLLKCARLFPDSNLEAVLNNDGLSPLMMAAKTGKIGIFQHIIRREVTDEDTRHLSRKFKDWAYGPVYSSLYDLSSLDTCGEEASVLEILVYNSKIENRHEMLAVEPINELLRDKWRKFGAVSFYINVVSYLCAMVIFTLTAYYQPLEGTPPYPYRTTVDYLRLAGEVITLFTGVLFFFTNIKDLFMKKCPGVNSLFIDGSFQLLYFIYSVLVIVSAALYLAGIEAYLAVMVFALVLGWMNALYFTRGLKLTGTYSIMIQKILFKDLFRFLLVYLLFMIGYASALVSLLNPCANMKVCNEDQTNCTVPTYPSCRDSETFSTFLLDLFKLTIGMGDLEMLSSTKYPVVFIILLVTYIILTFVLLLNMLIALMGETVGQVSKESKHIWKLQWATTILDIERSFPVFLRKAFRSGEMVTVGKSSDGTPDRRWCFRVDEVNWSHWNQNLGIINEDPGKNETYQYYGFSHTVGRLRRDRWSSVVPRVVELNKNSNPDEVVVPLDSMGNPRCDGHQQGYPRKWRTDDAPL

By Ki is commonly meant a measure of affinity in units of concentration, obtained from inhibition or displacement. For the compound `Cc1c(C(=O)Nc2cccc(C(F)(F)F)c2)cc(-c2ccccc2)n1CCCN(C)C(=O)c1ccc2ccccc2n1` [Compound I-055], the Ki was 984 nM.

Regarding `Cc1c(C(=O)Nc2cccc(C(F)(F)F)c2)cc(-c2ccccc2)n1CCCN(C)C(=O)c1ccncc1` [Compound I-047], the Ki was 320 nM.

For `Cc1c(C(=O)Nc2cccc(C(F)(F)F)c2)cc(-c2ccccc2)n1CCCN(C)CC1CCOCC1` [Compound I-040], the Ki was 1140 nM.

Take `COc1ccc(OC)c(CC(=O)N(C)CCCn2c(-c3ccccc3)cc(C(=O)Nc3cccc(C(F)(F)F)c3)c2C)c1` [Compound I-065]: the Ki is 850 nM.

Consider `Cc1c(C(=O)Nc2cccc(C(F)(F)F)c2)cc(-c2ccccc2)n1CCCN(C)C(=O)c1ccco1` [Compound I-043], for which the Ki was 1380 nM.

Turning to `Cc1c(C(=O)Nc2cccc(C(F)(F)F)c2)cc(-c2ccccc2)n1CCCN(C)C(=O)c1cccs1` [Compound I-044], the Ki was 844 nM.

On to `Cc1c(C(=O)Nc2cccc(C(F)(F)F)c2)cc(-c2ccccc2)n1CCCN(C)C(=O)C(Cl)(Cl)Cl` [Compound I-064], for which the Ki is 713 nM.

In the case of `Cc1c(C(=O)Nc2nc3ccccc3s2)cc(-c2ccccc2)n1CCCN1CCOCC1` [Compound I-020], the inhibition constant Ki is 992 nM.

Turning to `CCOC(=O)C1CC1CN(C)CCCn1c(-c2ccccc2)cc(C(=O)Nc2cccc(C(F)(F)F)c2)c1C` (stereo not shown) [Compound I-037], the Ki was 1800 nM.

Consider `Cc1c(C(=O)Nc2cccc(C(F)(F)F)c2)cc(-c2ccccc2)n1CCCN(C)C(=O)c1ccc2occc2c1` [Compound I-058], for which the Ki was 1650 nM.

Turning to `Cc1c(C(=O)Nc2cccc(C(F)(F)F)c2)cc(-c2ccccc2)n1CCCN(C)C(=O)C1CCOCC1` [Compound I-068], the Ki was 1010 nM.

Take `COCC(=O)N(C)CCCn1c(-c2ccccc2)cc(C(=O)Nc2cccc(C(F)(F)F)c2)c1C` [Compound I-045]: the Ki is 1720 nM.

With `Cc1c(C(=O)Nc2cccc(C(F)(F)F)c2)cc(-c2ccccc2)n1CCCN(C)CCOCc1ccccc1` [Compound I-034], the Ki is 2620 nM.

For the compound `Cc1c(C(=O)Nc2cccc(C(F)(F)F)c2)cc(-c2ccccc2)n1CCCN(C)C(=O)c1ccc2c(c1)OCO2` [Compound I-048], the Ki was 1310 nM.

On to `Cc1c(C(=O)Nc2cccc(C(F)(F)F)c2)cc(-c2ccccc2)n1CCCN(C)C(=O)C(C)C` [Compound I-051], for which the Ki is 590 nM.

For `Cc1c(C(=O)Nc2cccc(C(F)(F)F)c2)cc(-c2ccccc2)n1CCCN(C)C(=O)c1cnc2ccccc2n1` [Compound I-066], the Ki was 662 nM.

`Cc1c(C(=O)Nc2cccc(C(F)(F)F)c2)cc(-c2ccccc2)n1CCCN(C)C(=O)c1csc(-c2ccccc2)n1` [Compound I-061]: the Ki is 1700 nM.

Turning to `Cc1c(C(=O)Nc2cccc(C(F)(F)F)c2)cc(-c2ccccc2)n1CCCN(C)C(=O)c1cccnc1` [Compound I-053], the Ki is 978 nM.

Take `Cc1c(C(=O)OCc2ccccc2)cc(C(C)(C)C)n1CCCN1CCOCC1` [Compound I-001]: the Ki is 3960 nM.

For `Cc1c(C(=O)Nc2cccc(C(F)(F)F)c2)cc(-c2ccccc2)n1CCCN(C)c1ccccc1` [Compound I-012], the Ki was 1140 nM.

As for `Cc1c(C(=O)Nc2cccc(C(F)(F)F)c2)cc(-c2ccccc2)n1CCCN(C)C(=O)c1ccc(N(C)C)cc1` [Compound I-060], the Ki was 1350 nM.

Turning to `Cc1c(C(=O)Nc2cccc(C(F)(F)F)c2)cc(-c2ccccc2)n1CCCN(C)C(=O)C(=O)c1c[nH]c2ccccc12` [Compound I-067], the Ki was 2370 nM.

As to `Cc1c(C(=O)Nc2cccc(C(F)(F)F)c2)cc(-c2ccccc2)n1CCCNc1ccccc1` [Compound I-011], the Ki was 1700 nM.

For `Cc1c(C(=O)Nc2cccc(C(F)(F)F)c2)cc(-c2ccccc2)n1CCCN(C)C(=O)C1CC1` [Compound I-052], the Ki is 707 nM.

Consider `Cc1c(C(=O)Nc2cccc(C(F)(F)F)c2)cc(-c2ccccc2)n1CCCN(C)C(=O)c1csc(-c2cccs2)n1` [Compound I-062], for which the Ki is 1390 nM.
